Results published in ChEMBL document CHEMBL1156547, “10-Hydroxy-7,8-dihydropyrazino[1',2':1,5]pyrrolo[2,3-d]pyridazine-1,9(2H,6H)-diones: potent, orally bioavailable HIV-1 integrase strand-transfer inhibitors with activity against integrase mutants” (Bioorg Med Chem Lett, 2008).

Experiments:
[1] = test system: Human immunodeficiency virus 1; test: Antiviral activity against HIV1 3B in human MT4 cells assessed as reduction in p24 antigen levels after 72 hrs by multi-cycle viral replication assay in presence of 50% normal human serum; assay type: functional
[2] = test system: Human immunodeficiency virus 1; test: Antiviral activity against wild type HIV1 3B in human P4/R5 cells assessed as beta-galactosidase activity by single-cycle viral replication assay in presence of 10% FBS; assay type: functional, organism-based; conditions: Human immunodeficiency virus 1, 3B
[3] = test system: Human immunodeficiency virus 1; test: Ratio of IC50 for HIV1 3B with integrase F121Y mutation to IC50 for wild type HIV1 3B by single-cycle viral replication assay in presence of 10% FBS; assay type: functional
[4] = test system: Human immunodeficiency virus 1; test: Ratio of IC50 for HIV1 3B with integrase T66I/S153Y mutation to IC50 for wild type HIV1 3B by single-cycle viral replication assay in presence of 10% FBS; assay type: functional
[5] = test system: Human immunodeficiency virus 1; test: Ratio of IC50 for HIV1 3B with integrase N155S mutation to IC50 for wild type HIV1 3B by single-cycle viral replication assay in presence of 10% FBS; assay type: functional
[6] = Clearance in Sprague-Dawley rat at 2 mg/kg, iv; assay type: ADME, organism-based; set-up: dose 2 mg/kg, route intravenous; conditions: in vivo
[7] = Volume of distribution in Sprague-Dawley rat at 2 mg/kg, iv; assay type: ADME, organism-based; set-up: dose 2 mg/kg, route intravenous; conditions: in vivo
[8] = Plasma half life in Sprague-Dawley rat at 2 mg/kg, iv; assay type: ADME, organism-based; set-up: dose 2 mg/kg, route intravenous
[9] = Oral bioavailability in Sprague-Dawley rat at 10 mg/kg; assay type: ADME, organism-based; conditions: in vivo
[10] = test system: Human immunodeficiency virus 1; test: Antiviral activity against HIV1 3B in human MT4 cells assessed as reduction in p24 antigen levels after 72 hrs by multi-cycle viral replication assay in presence of 10% FBS; assay type: functional
[11] = molecular target: Human immunodeficiency virus type 1 integrase (Human immunodeficiency virus 1, UniProt Q7ZJM1); test: Inhibition of HIV1 integrase strand transfer activity
Chain of Human immunodeficiency virus type 1 integrase (Q7ZJM1 whole entry): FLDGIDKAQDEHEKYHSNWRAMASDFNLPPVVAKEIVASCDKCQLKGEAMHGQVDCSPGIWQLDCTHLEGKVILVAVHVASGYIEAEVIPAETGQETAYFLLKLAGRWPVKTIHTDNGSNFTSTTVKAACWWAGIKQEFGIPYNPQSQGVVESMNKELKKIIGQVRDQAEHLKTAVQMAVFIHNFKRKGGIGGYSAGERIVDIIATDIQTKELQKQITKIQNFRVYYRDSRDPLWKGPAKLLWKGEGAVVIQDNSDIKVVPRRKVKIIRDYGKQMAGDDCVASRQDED

[12] = test system: Human immunodeficiency virus 1; test: Antiviral activity against HIV1 with integrase Q148K mutation relative to wild type HIV1; assay type: functional
[13] = Oral bioavailability in Beagle dog; assay type: ADME, organism-based, Canis lupus familiaris; conditions: in vivo
[14] = Clearance in Beagle dog; assay type: ADME, organism-based, Canis lupus familiaris; conditions: in vivo
Canis familiaris = test: Half life in iv dosed Beagle dog; assay type: ADME, organism-based, Canis lupus familiaris; conditions: in vivo

| SMILES | IC95 [1] [nM] | IC50 [2] [nM] | Ratio IC50 [3] | Ratio IC50 [4] | Ratio IC50 [5] | clearance [6] [mL/min/kg] | Vd [7] [L/kg] | half-life [8] [h] | bioavailability [9] [%] | Antiviral activity (p24 reduction) [10] [nM] | IC50 [11] [nM] | fold change (FC) [12] | bioavailability [13] [%] | clearance [14] [mL/min/kg] | T1/2 (Canis familiaris) [h] |
| --- | --- | --- | --- | --- | --- | --- | --- | --- | --- | --- | --- | --- | --- | --- | --- |
| CCN1C[C@H](C)n2c(c(O)c3c(=O)n(Cc4ccc(F)cc4)ncc32)C1=O | 46 | 16 | 5 | 1 | 27 | 0.5 | 0.2 | 6 | 31 | 24 | – | – | – | – | – |
| Cc1nn(Cc2ccc(F)cc2)c(=O)c2c(O)c3n(c12)[C@@H](C)CN(C)C3=O | 31 | 10 | 4 | 2 | 20 | – | – | – | – | 10 | – | – | – | – | – |
| CCN1CC(C)(C)n2c(c(O)c3c(=O)n(Cc4ccc(F)cc4)ncc32)C1=O | 30 | 19 | 10 | 3 | 27 | 0.68 | 0.3 | 5.2 | 13 | 10 | – | – | – | – | – |
| Cc1nn(Cc2ccc(F)cc2)c(=O)c2c(O)c3n(c12)CCN(C)C3=O | 130 | 21 | 10 | 8 | 48 | – | – | – | – | 43 | – | – | – | – | – |
| Cc1nn(Cc2ccc(F)cc2)c(=O)c2c(O)c3n(c12)[C@H](C)CN(C)C3=O | 1000 | 66 | 9 | 8 | 91 | – | – | – | – | 250 | – | – | – | – | – |
| CC(C)N1C[C@H](C)n2c(c(O)c3c(=O)n(Cc4ccc(F)cc4)ncc32)C1=O | 26 | 19 | 2 | 1 | 6 | 0.17 | 0.2 | 12 | 21 | 13 | ≤ 10 | 45 | < 5 | 10 | 1 |
| Cc1nn(Cc2ccc(F)cc2)c(=O)c2c(O)c3n(c12)[C@@H](C)CN(C(C)C)C3=O | 35 | 10 | 1 | 1 | 2 | 3 | 0.3 | 5.3 | 17 | 16 | ≤ 10 | 3 | < 5 | 10 | 1 |
| CN1CCn2c(c(O)c3c(=O)n(Cc4ccc(F)cc4)ncc32)C1=O | 380 | 72 | 11 | 7 | 53 | – | – | – | – | 120 | – | – | – | – | – |
| CCN1C[C@H](C)n2c(c(O)c3c(=O)n(Cc4ccc(F)cc4)nc(C)c32)C1=O | 40 | 14 | 1 | 1 | 6 | 17 | 2.6 | 6.2 | 7 | 17 | – | – | – | – | – |
| CCN1C[C@@H](C)n2c(c(O)c3c(=O)n(Cc4ccc(F)cc4)ncc32)C1=O | 500 | 52 | 8 | 9 | 10 | – | – | – | – | 250 | – | – | – | – | – |
| CC(C)N1C[C@H](C)n2c(c(O)c3c(=O)n(Cc4ccc(F)c(Cl)c4)ncc32)C1=O | 220 | 28 | 1 | 1 | 3 | 0.17 | 0.2 | 13 | 14 | 30 | – | – | – | – | – |
| CCN1C[C@H](C)n2c(c(O)c3c(=O)n(Cc4ccc(F)c(Cl)c4)ncc32)C1=O | 160 | 19 | 2 | 1 | 7 | 0.27 | 0.3 | 9.5 | 13 | 31 | – | – | – | – | – |
